Tests used:
[1] = test system: Burkholderia vietnamiensis AU 10214; experiment: Killing of Burkholderia vietnamiensis AU 10214 by colistin with Apyrase Agent, CFU count; type: cell-based; settings: colistin at less than 20 μg/ml, with Apyrase Agent 2 U/ml or alone
Description: (§1) In this Example (and in subsequent Examples), the colistin is colistin sulfate salt, catalog number C4461 from Sigma-Aldrich (St. Louis, Mo.) and the apyrase is catalog number M0393L from New England BioLabs Inc. (Ipswich, Mass.).
(§2) Burkholderia vietnamiensis AU 10214 is grown in the presence of combinations of 0 and 2 U/ml of Apyrase Agent and approximately 0 to 20 μg/ml of colistin. After incubation, the numbers of viable cells are determined by counting the colony forming units (CFU) on the plate (data provided as CFU/ml). Apyrase Agent improves the efficiency of killing Burkholderia vietnamiensis AU 10214 by colistin. Apyrase Agent increases the effectiveness of colistin at less than 20 μg/ml such that less than 10 to 100 CFU/ml are detected relative to greater than 10^5 to 10^6 in the presence of colistin alone at the same concentrations.

[2] = test system: Burkholderia cepacia GUIa AU0019; experiment: Killing of Burkholderia cepacia GUIa AU0019 by colistin with Apyrase Agent, CFU count; type: cell-based; settings: colistin at less than 10 μg/ml, with Apyrase Agent 2 U/ml or alone
Description: as §1
as §2, with “Burkholderia cepacia GUIa AU0019” for “Burkholderia vietnamiensis AU 10214”, “than 10” for “than 20”

Question: With colistin sulfate salt as the substance, how does the “numbers of viable cells (CFU)” value [1] read?
Answer: 10^5 to 10^6 CFU/ml

Question: What about the “numbers of viable cells (CFU)” value [2] of the same substance?
Answer: 10^5 to 10^6 CFU/ml

— patent US20170333532A1, “ADP'ASE-ENHANCED APYRASE THERAPY FOR WOUNDS, MICROBIAL INFECTION, SEPSIS, AND HETEROTOPIC OSSIFICATION” (APT THERAPEUTICS, INC, priority 2014, published 2017)
